Drawing on PMC7224190, “Pharmacological inhibition of PRMT7 links arginine monomethylation to the cellular stress response” (Nature Communications, 2020), this text covers IC50, remaining activity and Kd for three molecules.

In experiment [1] the target is T1, PRMT7 (Homo sapiens, UniProt Q9NVM4).
T1 sequence (Q9NVM4 1-692): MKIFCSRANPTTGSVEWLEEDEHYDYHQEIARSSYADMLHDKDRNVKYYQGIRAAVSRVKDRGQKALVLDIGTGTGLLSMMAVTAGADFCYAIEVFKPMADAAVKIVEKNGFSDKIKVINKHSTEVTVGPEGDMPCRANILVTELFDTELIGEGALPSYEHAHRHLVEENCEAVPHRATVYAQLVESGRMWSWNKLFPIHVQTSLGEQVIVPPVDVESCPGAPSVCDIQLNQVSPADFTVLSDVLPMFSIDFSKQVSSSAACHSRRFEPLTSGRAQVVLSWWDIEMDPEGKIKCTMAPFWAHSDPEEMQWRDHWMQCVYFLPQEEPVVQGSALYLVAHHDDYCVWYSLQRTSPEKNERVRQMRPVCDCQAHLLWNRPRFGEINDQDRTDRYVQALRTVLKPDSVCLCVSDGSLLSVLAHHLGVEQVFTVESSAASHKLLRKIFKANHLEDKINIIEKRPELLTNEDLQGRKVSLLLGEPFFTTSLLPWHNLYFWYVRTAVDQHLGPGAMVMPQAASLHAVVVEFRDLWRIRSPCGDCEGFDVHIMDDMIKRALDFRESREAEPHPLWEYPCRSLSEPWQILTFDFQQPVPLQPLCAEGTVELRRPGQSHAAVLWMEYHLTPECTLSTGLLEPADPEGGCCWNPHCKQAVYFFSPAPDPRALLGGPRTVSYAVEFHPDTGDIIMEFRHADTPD
In words: radiometric SPA methyltransferase assay (negative control compound, weak). The class given is biochemical.

For a further experiment, the target named is T2, SUV420H2 (Homo sapiens, UniProt Q86Y97).
T2 construct: gene KMT5C
In words: biochemical. The following applies: read-out: % of control remaining. The arrangement: radiometric methyltransferase selectivity assay with tritiated SAM, per cent activity. The gist of the method: (§1)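 Radiometric methyltransferase assays with ³H-SAM and substrate near apparent Km, compound tested at 1 and 10 μM. Methyl incorporation into biotinylated substrate read by scintillation proximity after guanidine quench; no-compound = 100%, no-enzyme = 0% activity.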

The next experiment concerns the target NSD1 (Homo sapiens, UniProt Q96L73). In words: biochemical. Set-up: radiometric methyltransferase selectivity assay with tritiated SAM, per cent activity. Particulars: read-out: % of control remaining. The gist of the method:
as §1

The target of another experiment is PRMT8 (Homo sapiens, UniProt Q9NR22). In words: biochemical. Set-up: radiometric methyltransferase selectivity assay with tritiated SAM, per cent activity. The following applies: read-out: % of control remaining. The procedure, abridged:
as §1

In experiment [2] the target is T1, PRMT7. In words: SPR kinetics (Biacore T200); also radiometric SPA IC50 […]. The format is binding. Set-up: Bio-PRMT7 (amino acids 1–692).
The target in experiment [3] is T1, PRMT7. In words: radiometric SPA methyltransferase assay, 3H-SAM and H2B ([…]). The class given is biochemical.

Some results are limits rather than exact numbers.

Chain of PRMT8 (Q9NR22 whole entry): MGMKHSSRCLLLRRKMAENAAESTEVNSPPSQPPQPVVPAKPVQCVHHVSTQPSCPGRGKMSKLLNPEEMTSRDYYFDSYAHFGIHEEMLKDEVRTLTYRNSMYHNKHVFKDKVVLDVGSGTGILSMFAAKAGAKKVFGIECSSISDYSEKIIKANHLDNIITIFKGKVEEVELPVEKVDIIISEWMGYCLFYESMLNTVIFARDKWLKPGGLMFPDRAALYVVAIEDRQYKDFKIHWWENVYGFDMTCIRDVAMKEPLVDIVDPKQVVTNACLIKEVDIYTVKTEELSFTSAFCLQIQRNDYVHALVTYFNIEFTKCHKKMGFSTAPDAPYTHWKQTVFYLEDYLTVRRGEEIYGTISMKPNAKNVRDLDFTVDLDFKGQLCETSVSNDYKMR
Chain of NSD1 (Q96L73 whole entry): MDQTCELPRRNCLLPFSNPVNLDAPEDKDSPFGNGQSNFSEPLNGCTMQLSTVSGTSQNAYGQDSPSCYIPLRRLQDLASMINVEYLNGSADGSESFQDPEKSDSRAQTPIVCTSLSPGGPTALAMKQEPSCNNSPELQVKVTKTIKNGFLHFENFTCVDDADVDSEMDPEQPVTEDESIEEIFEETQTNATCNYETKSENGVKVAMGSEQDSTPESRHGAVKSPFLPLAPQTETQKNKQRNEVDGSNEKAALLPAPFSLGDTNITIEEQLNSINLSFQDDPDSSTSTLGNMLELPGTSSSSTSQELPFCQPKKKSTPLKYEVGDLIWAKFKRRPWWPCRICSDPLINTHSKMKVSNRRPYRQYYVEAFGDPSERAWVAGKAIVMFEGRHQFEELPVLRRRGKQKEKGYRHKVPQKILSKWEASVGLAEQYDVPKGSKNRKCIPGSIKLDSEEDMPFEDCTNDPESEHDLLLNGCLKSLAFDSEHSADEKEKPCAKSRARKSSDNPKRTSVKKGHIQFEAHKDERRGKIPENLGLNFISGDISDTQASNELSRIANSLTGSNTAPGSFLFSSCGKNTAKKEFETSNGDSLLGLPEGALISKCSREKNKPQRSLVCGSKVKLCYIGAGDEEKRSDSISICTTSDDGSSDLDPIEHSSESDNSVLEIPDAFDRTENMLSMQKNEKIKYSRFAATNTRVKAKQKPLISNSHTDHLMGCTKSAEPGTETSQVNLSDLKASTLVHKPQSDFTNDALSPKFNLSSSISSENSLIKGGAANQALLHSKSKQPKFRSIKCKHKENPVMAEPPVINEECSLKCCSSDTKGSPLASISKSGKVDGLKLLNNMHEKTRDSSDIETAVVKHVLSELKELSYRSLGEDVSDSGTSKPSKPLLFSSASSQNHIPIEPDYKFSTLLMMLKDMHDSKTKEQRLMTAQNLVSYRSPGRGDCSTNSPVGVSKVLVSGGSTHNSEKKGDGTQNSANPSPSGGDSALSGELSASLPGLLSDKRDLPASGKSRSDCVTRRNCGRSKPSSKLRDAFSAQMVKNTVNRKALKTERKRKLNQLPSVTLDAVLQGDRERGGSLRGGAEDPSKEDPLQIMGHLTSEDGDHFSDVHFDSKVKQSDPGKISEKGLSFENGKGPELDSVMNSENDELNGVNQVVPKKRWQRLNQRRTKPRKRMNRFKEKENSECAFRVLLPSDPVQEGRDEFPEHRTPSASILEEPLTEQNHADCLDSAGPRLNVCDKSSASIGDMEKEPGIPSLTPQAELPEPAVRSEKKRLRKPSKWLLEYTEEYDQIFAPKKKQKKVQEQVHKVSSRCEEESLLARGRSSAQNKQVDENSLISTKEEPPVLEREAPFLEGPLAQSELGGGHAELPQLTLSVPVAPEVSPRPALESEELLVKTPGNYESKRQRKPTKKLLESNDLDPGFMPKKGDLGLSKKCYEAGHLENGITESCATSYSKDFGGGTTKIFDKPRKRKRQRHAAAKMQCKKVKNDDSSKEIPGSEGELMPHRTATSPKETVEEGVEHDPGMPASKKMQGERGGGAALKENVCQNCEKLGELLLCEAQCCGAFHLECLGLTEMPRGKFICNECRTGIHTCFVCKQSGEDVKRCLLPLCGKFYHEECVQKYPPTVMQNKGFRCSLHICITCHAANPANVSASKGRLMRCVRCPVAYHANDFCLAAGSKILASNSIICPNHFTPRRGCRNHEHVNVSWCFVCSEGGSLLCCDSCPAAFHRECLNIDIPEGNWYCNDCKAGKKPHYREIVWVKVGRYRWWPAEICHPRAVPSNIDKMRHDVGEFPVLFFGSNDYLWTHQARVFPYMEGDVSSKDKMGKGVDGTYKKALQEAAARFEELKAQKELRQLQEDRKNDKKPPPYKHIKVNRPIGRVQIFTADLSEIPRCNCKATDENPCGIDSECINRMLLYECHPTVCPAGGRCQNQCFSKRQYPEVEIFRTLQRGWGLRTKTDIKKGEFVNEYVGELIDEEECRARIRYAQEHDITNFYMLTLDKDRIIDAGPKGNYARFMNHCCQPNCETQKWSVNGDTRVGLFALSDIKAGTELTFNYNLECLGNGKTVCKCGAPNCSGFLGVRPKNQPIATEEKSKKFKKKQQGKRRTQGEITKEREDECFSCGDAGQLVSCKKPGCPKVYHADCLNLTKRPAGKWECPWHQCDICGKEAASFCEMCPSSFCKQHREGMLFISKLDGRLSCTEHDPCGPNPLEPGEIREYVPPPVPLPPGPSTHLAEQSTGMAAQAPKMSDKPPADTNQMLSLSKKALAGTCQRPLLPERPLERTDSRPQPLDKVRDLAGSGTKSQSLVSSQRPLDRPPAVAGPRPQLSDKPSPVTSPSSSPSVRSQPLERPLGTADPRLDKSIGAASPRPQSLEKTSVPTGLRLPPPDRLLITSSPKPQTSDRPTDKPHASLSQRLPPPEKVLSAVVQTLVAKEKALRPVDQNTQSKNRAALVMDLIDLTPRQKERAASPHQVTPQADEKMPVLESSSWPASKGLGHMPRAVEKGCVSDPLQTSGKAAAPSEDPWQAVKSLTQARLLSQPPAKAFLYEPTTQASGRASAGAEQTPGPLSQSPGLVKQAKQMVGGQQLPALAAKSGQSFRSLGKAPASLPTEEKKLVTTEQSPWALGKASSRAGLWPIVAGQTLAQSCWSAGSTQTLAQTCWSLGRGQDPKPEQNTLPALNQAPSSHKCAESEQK
T2 sequence (Q86Y97 whole entry): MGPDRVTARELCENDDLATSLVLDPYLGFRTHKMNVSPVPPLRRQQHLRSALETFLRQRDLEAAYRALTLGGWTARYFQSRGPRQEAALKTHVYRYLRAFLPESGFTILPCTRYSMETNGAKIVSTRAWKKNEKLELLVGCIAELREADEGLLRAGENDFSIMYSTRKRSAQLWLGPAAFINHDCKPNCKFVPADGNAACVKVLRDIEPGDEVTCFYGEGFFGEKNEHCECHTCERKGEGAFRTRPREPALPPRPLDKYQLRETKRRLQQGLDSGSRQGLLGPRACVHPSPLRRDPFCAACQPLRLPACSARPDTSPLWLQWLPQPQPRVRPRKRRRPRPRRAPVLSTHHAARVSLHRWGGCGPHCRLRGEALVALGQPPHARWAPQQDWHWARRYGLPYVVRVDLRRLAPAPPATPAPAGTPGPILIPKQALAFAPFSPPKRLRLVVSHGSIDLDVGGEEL

For orientation: IC50 means the midpoint of a concentration-inhibition curve. Regarding `CC1(C)O[C@@H]2[C@H](O1)[C@@H](CSCCCCNCc1cccc(-c3ccc(Cl)cc3)c1)O[C@H]2n1cnc2c(N)ncnc21` [SGC8158N], at PRMT7 [1], half-maximal inhibition (IC50) required 14000 ± 2000 nM. Moreover, the results for the remaining activity at 1 µM at SUV420H2, at NSD1 and at PRMT8 were 102%, 99% and 97%, respectively. For the same molecule, the remaining activity at 10 µM on SUV420H2 turned out to be 101%; on NSD1, 98%; on PRMT8 it was 97%.
A word on the Kd: it is the concentration at which binding is half-saturated. The low end stands for higher affinity, the high end for lower affinity. For the molecule `Nc1ncnc2c1ncn2[C@@H]1O[C@H](CSCCCCNCc2cccc(-c3ccc(Cl)cc3)c2)[C@@H](O)[C@H]1O` [SGC8158], the remaining activity at 1 µM on SUV420H2 worked out at 98%; at NSD1, 104%; on PRMT8, 92%. Besides, the remaining activity at 10 µM on SUV420H2 was found to be 87%; at NSD1, 99%; at PRMT8, 45%. The Kd at PRMT7 [2] amounted to 6.4 ± 1.2 nM.
Regarding `Nc1ncnc2c1ncn2[C@@H]1O[C@H](CSCCCNCc2cccc(-c3ccc(Cl)cc3)c2)[C@@H](O)[C@H]1O` [SGC8172], the half-maximal inhibitory concentration (IC50) at PRMT7 [3] was < 2.5 nM.
